A short description of one data set: PAMPA permeability. The format is in vitro ADME. Conditions: both the fed and fasted state simulating conditions. Here is the method:
Reference source not found. PAMPA permeability measurements were performed as described by M. Kansi et al. (Journal of medicinal chemistry, 41, (1998) pp 1007) with modifications based on S. Bendels et al (Pharmaceutical research, 23 (2006) pp 2525). Permeability was measured in a 96-well plate assay across an artificial membrane composed of dodecane with 20% soy lecithin supported by a PVDF membrane (Millipore, USA). The receiver compartment was phosphate buffered saline (pH 7.0) supplemented with 1% sodium dodecyl sulfate. The assay was performed at room temperature; incubation time was 1-24 hours. The concentration in the receiver compartment was determined by UV-VIS spectrophotometry (Thermo Scientific Genesys S10).
The ratio of the selected complexation agents and pharmaceutically acceptable excipients (Lutrol F127 and Sodium acetate) was optimized.

Data set [1] can be described thus: Comparative solubility test (apparent solubility, UV-VIS). The format is physicochemical. Conditions: distillated water, room temperature, 100 nm syringe filter. The procedure: The samples were dispersed in distillated water and the resulting dispersions were filtered by 100 nm disposable syringe filter. The active content in the filtrate was measured by UV-Vis spectrophotometry and the solubility was calculated.

For data set [2] the following is noted: cited from earlier work.
In data set [3] the test system is tamoxifen-resistant, as well as estrogen-sensitive human breast cancer (MCF-7) cell lines. Conditions: tamoxifen-resistant and estrogen-sensitive MCF-7 cell lines; cited from earlier work.
In data set [4] the test system is xenografts of human breast cancer MCF-7 cells. The note with it: cited from earlier work.
For data set [5] the following is noted: immature or ovariectomized mice and rats; cited from earlier work.
For data set [6] the following is noted: immature rats and ovariectomized monkeys; cited from earlier work.
[7] abbreviates: intramuscular injection of 250 mg.

The values below come from US20150132388A1 (Druggability Technologies Holdings Limited, priority 2013, published 2015).

For the substance “7-alpha-[9-(4,4,5,5,5-penta fluoropentylsulphinyl)nonyl]estra-1,3,5-(10)-triene-3,17 beta-diol [Fulvestrant]”, the PAMPA permeability result in “PAMPA permeability” is given as “not detectable”. Further, in data set [1], the “Solubility (apparent solubility)” value is under 30 µg/mL. The “Time to maximum plasma concentrations” value in data set [2] (250 mg intramuscularly) is “about 7 days”. In data set [2] (in vivo), the “Excretion via the feces” value is on record as “approximately 90%” and the Renal elimination result is given as “less than 1%”. Besides, in data set [2] (setting [7]), the Apparent half-life result is “about 40 days” and the “Clearance (Mean±SD)” value was 690 ± 226 mL/min. Besides, the Bioavailability in data set [2] (intramuscular, between study comparisons) is on record as 90-100%. Further, in data set [2] (once a month administration), the Accumulation is 2-3 fold and the “Time to steady state” value is given as “about 6 months”. The Terminal half-life result in data set [2] (single dose studies, intramuscular) is reported as “about 50 days”. The “Inhibition of cell growth” value in data set [3] is given as “reversible inhibitor of the growth”. The “Establishment of tumors from xenografts” value in data set [4] (MCF-7 cells in nude mice) is recorded as “delayed the establishment of tumors”. Moreover, the “Growth of established xenografts” value in data set [4] (established MCF-7 xenografts and tamoxifen-resistant breast tumor xenografts) is on record as “inhibited the growth”. Also, the “Agonist-type effects in uterotropic assays” value in data set [5] is reported as “no agonist-type effects”. Also, the “Effect on the uterotrophic action of estradiol” value in data set [6] is listed as “blocked the uterotrophic action of estradiol”.
